Reference: PMC9090141 (Pediatric blood & cancer, 2021)
Values joined by “and” are separate entries in the source; they are usually repeats but may differ in a detail not shown here. Equal entries are not always repeated. “Also recorded” adds a separate entry of the source. Structures can show the parent of a compound that is named as a salt. Where two headings read alike, the source gives them in different places.

Tests used:
[1] = Plasma pharmacokinetics in cycle 1; type: in vivo, human; details: for Tmax / half-life / concentration at 24 h / AUC(0-inf) / AUC(0-t) / Cmax: plasma; for concentration at 24 h: RP2D (150 mg/m^2)
[2] = tested on: pCHK1; details: cited from earlier work
[3] = adults, 105 mg/m^2, cited from earlier work
[4] = tested on: pediatric cancer cell lines; details: cited from earlier work
[5] = 80 mg/m^2 IV over 60 min, first dose cycle 1, 6 patients
[6] = 100 mg/m^2 IV over 60 min, first dose cycle 1, 6 patients
[7] = 125 mg/m^2 IV over 60 min, first dose cycle 1, 5 patients
[8] = 150 mg/m^2 IV over 60 min, first dose cycle 1, 12 patients
[9] = All Patients (80-150 mg/m^2), first dose cycle 1, 29 patients

Compound: COc1cccc(OCCCN)c1-c1cc(Nc2cnc(C#N)cn2)n[nH]1 [prexasertib, Prexasertib mesylate monohydrate]
- CLp [1, 5]: 48.2 ± 11.5 L/hr/m^2
- Vss [1, 5]: 245 ± 67 L/m^2
- CLp [1, 6]: 45.1 L/hr/m^2 and 45.1 ± 12.6 L/hr/m^2
- Vss [1, 6]: 332 ± 85 L/m^2
- CLp [1, 7]: 49.3 ± 10.3 L/hr/m^2
- Vss [1, 7]: 292 ± 169 L/m^2
- CLp [1, 8]: 44.4 L/hr/m^2 and 44.4 ± 13.5 L/hr/m^2
- Vss [1, 8]: 257 ± 98 L/m^2
- exposure relative to the adult RP2D ([1]; 150 mg/m^2 vs RP2D from either adult study): twice the exposure
- dose proportionality / linearity of PK ([1]; 80–150 mg/m^2 dose range, single dose): linear; also recorded: proportional to dose
- CLp [1, 9]: 46.1 ± 12.0 L/hr/m^2
- Vss [1, 9]: 276 ± 102 L/m^2
- BSA-adjusted plasma clearance ([1]; children <12 years (N=16)): 49.4 ± 10.0 L/hr/m^2
- plasma clearance ([1]; females (N=9)): 47.1 ± 9.7 L/hr/m^2
- time plasma concentrations maintained above the IC50 for pCHK1 inhibition ([1]; human, in vivo): approximately 24 hours
- Tmax ([1]; human, intravenous): 1.2 ± 0.5 h
- half-life ([1]; human, intravenous): 8.9 ± 3.4 h
- concentration at 24 h ([1]; human, intravenous, 150 mg/m^2, median plasma concentration 24 hours after the first dose (C-24h)): 13.4 ng/mL
- concentration at 24 h ([1]; human, intravenous, 150 mg/m^2, range of plasma concentration 24 hours after the first dose (C-24h)): 7.6 to 43.6 ng/mL
- AUC(0-inf) ([1]; human, iv, 80 mg/m2): 1730 ± 387 ng·h/mL
- AUC(0-t) ([1]; human, iv, 80 mg/m2): 1620 ± 358 ng·h/mL
- Cmax ([1]; human, iv, 80 mg/m2): 858 ± 311 ng/mL
- Tmax ([1]; human, iv, 80 mg/m2): 1.4 ± 0.9 h
- half-life ([1]; human, iv, 80 mg/m2): 7.6 ± 2.3 h
- AUC(0-inf) ([1]; human, iv, 100 mg/m2): 2380 ± 712 ng·h/mL
- AUC(0-t) ([1]; human, iv, 100 mg/m2): 2010 ± 416 ng·h/mL
- Cmax ([1]; human, iv, 100 mg/m2): 984 ± 289 ng/mL
- Tmax ([1]; human, iv, 100 mg/m2): 1.1 ± 0.2 h
- half-life ([1]; human, iv, 100 mg/m2): 10 ± 3.9 h
- AUC(0-inf) ([1]; human, iv, 125 mg/m2): 2640 ± 632 ng·h/mL
- AUC(0-t) ([1]; human, iv, 125 mg/m2): 2460 ± 545 ng·h/mL
- Cmax ([1]; human, iv, 125 mg/m2): 1230 ± 212 ng/mL
- Tmax ([1]; human, iv, 125 mg/m2): 1.1 ± 0.1 h
- half-life ([1]; human, iv, 125 mg/m2): 8.5 ± 4.5 h
- AUC(0-inf) ([1]; human, iv, 150 mg/m2): 3680 ± 1060 ng·h/mL
- AUC(0-t) ([1]; human, iv, 150 mg/m2): 3360 ± 898 ng·h/mL
- Cmax ([1]; human, iv, 150 mg/m2): 1700 ± 822 ng/mL
- Tmax ([1]; human, iv, 150 mg/m2): 1.2 ± 0.5 h
- half-life ([1]; human, iv, 150 mg/m2): 9.2 ± 3.5 h
- plasma clearance ([1]; males (N=20)): 45.6 ± 13.1 L/hr/m^2
- BSA-adjusted plasma clearance ([1]; ≥12 years (N=13)): 42.2 ± 13.3 L/hr/m^2
- median AUC0–72h predicted for efficacy ([2]; Calu-6 preclinical PK/PD model): 1896 ng·h/mL
- IC50 for pCHK1 inhibition (plasma concentration) [2]: 14.1 ng/ml
- mean AUC0–24h ([3]; ref Hong et al. [11]): 1130 ng·h/mL
- mean AUC0–24h ([3]; ref Iwasa et al. [20]): 1690 ng·h/mL
- inhibition of cell proliferation, potency [4]: low nanomolar concentrations
